Marks after values point to notes of the source that are not given here.
Tests used:
[1] = system: L. donovani; experiment: EC50 in L. donovani (infected THP-1 macrophages, luciferase); assay type: cell-based, Leishmania donovani MHOM/ET/67/HU3; settings: Leishmania donovani, 72 h, read-out: L. donovani pEC50 (converted)
Procedure: Leishmania donovani MHOM/ET/67/HU3 cells with the luciferase gene integrated into the parasite genome[1] were grown at 28 °C in RPMI 1640-modified medium (Invitrogen) supplemented with 20% FBS with […] of hygromycin B.
The Human myelomonocytic cell line THP-1 was grown at 37 °C and 5% CO2 in RPMI-1640 supplemented with 10% iFBS, 2 mM […], 100 U/mL penicillin and […] streptomycin. 3 x 10^4 THP-1 cells per well in 96-well plates were differentiated to macrophages with 20 ng/mL of PMA treatment for 48 h followed by 24 h of culture in fresh medium.
Macrophage-differentiated THP-1 cells were infected at a macrophage/parasite ratio of 1/10 with stationary L. donovani promastigotes for 24 h at 35 °C and 5% CO2, and extracellular parasites were removed by washing with PBS. Infected cell cultures were then incubated with different compounds concentrations at 37 °C for 72 h. Luminescence was measured using the Promega kit luciferase assay system (Promega, Madison, WI). Assays were performed in duplicate at least twice, to achieve a minimal n=3 per dose response.

[2] = system: MRC5-SV2 cell line; experiment: Cytotoxicity assay in MRC5 (resazurin, 48 h); assay type: cell-based, human; settings: MRC5 toxicity
Procedure: For dose-response experiments, compound plates were prepared for each analogue by serial 3-fold dilutions in 100% DMSO. Five concentration points (mammalian cytotoxicity) or ten concentration points (parasite growth inhibition), were made in 96-well transparent Nunclon plates. Pentamidine is routinely included in compound plates as internal quality control, and plates are stored sealed at -20 °C for no more than four weeks. Intermediate plates were made as described, adding 95 μL of DMEM complete media to 5 μL of compound per well setting a 5% DMSO amount. Log-phase MRC5 cells were removed from a T-75 TC flask using TrypLE® Express (Thermo®) and dispersed by gentle pipetting. Cell density was adjusted to working concentration in prewarmed DMEM medium: 25,000 cells in 90 μL of culture were plated in 96-well transparent Nunclon plates and let to settle for 24 h at 37 °C and 5% CO2. After settling incubation, 10 μL of fresh made intermediate plate were added per well: final maximal concentration for compounds was 50 μM in 0.5% DMSO per well. […] Fluorescence was read in an Infinite F200 plate reader (Tecan®) at 550 nm (excitation filter) and 590 nm (emission filter). A 4-parameter equation was used to fit the dose-response curves and determination of EC50 by SigmaPlot ® 13.0 software. Assays were performed in duplicate at least twice for positive compounds, to achieve a minimal n=3 per dose response.

[3] = system: T. b. brucei; experiment: T. b. brucei growth inhibition EC50 assay (resazurin, 72 h); assay type: cell-based, Trypanosoma brucei brucei Lister 427; settings: 72 h, resazurin, error within ±0.20 (Table 2) or ±0.08 (Table 3) log units; for EC50: Trypanosoma brucei, read-out: T.b.b. pEC50 (converted)
Procedure: Mid-log phase growth T. b. brucei was diluted to a working cell density of 2,750 cells/mL and 90 μL/well dispensed into 96-well flat-bottom transparent assay plates (Nunc). Ten μL/well from intermediate plates were added. The final top concentration of compounds was 40 μM in 0.4% DMSO per well.
Assay plates were incubated for 72 h at 37°C and 5% CO2. Four hours prior to the end of the incubation, 20 μL of a 440 μM resazurin solution in prewarmed HMI-9 was added to each well and incubated for another 4 h. Fluorescence was then measured in an Infinite F200 plate reader (Tecan) at 550 nm (excitation filter) and 590 nm (emission filter). A 4-parameter equation was employed to fit the dose-response curves and determine of EC50 using the SigmaPlot 13.0 software. Assays were performed in duplicate at least twice, to achieve a minimal n = 3 per dose response.
Bloodstream Trypanosoma brucei brucei Lister 427 was cultured in Hirumi’s modified Iscove’s medium (HMI-9), supplemented with 10% heat-inactivated FBS, at 37 °C and 5% CO2 in T-25 vented flask (Corning®).
For dose-response experiments, compound plates were prepared for each analogue by serial 3-fold dilutions in 100% DMSO. Five concentration points (mammalian cytotoxicity) or ten concentration points (parasite growth inhibition), were made in 96-well transparent Nunclon plates. Pentamidine is routinely included in compound plates as internal quality control, and plates are stored sealed at -20 °C for no more than four weeks.

[4] = system: T. cruzi; experiment: β-D-Galactosidase transgenic T. cruzi assay (amastigote-infected L6 cells); assay type: cell-based, T. cruzi Tulahuen C4 strain; settings: Trypanosoma cruzi, 96 h, read-out: T. cruzi pEC50 (converted)
Procedure: The T. cruzi Tulahuen C4 strain, expressing the β-galactosidase gene (LacZ) and L6 rat skeletal muscle cells, used as host cells, were cultured in RPMI-1640 supplemented with 10% iFBS, 2 mM L-glutamine, 100 U/mL penicillin, and 100 μg/mL streptomycin at 37 °C and 5% CO2.
A Thermo Scientific Multidrop Combi dispenser (MTX Lab Systems, Vienna, VA) was used to dispense 90 μL of T. cruzi amastigote–infected L6 cell culture (4×10^3 infected L6 cells per well) into 96-well Corning assay plates (Corning Inc., Corning, NY) already containing 10 μL of the compounds to be screened and controls. The plates were incubated at 37 °C for 96 h. Then, 30 μL of 100 μM CPRG and 0.1% NP40 diluted in PBS were added to each well, and the plates were incubated for 4 h at 37 °C in the dark. Absorbance at 585 nm was measured in a Vmax kinetic microplate reader ([…]). Compound activities were normalized using the in-plate negative (benznidazole at 10 μg/mL) and positive (0.2% DMSO) growth controls.

[5] = Human plasma protein binding (equilibrium dialysis); assay type: in vitro ADME; settings: pH 7.4, read-out: PPB (converted)
Procedure: PPB is determined using equilibrium dialysis (RED device) to separate free from bound compound. The amount of compound in plasma (10 µM initial concentration) and in dialysis buffer (pH 7.4 phosphate buffer) is measured by LC-MS/MS after equilibration at 37 °C in a dialysis chamber. The fraction unbound (fu) is reported.

[6] = system: S. mansoni adults and somules; experiment: S. mansoni phenotypic assay, adults and somules (severity score); assay type: cell-based, Schistosoma mansoni (NMRI isolate); settings: score 0-4; for Adult severity score (10 μM): adults; for Somule severity score (10 μM): somules
Procedure: Maintenance of the Schistosoma mansoni life cycle, preparation of somules (post-infective larvae) and adult worms (≥42-days-old), and co-incubation of these stages with test compounds were as described. An NMRI isolate of S. mansoni was used for all whole-organism screens.
Somules (40 units/well/96w round-bottomed plate) or adults (five paris/well/24w plate) were cultured in the presence of compounds at 10 µM and phenotypic changes observed as a function of time using an Zeiss Axiovert A1 inverted microscope (Table S4). A constrained nomenclature was used to describe the effects of compounds on parasites (changes in shape, motility and density). To generate a partially quantitative output for comparing drug effects, each descriptor was awarded a score of 1 and these were summed to a maximum score of 4 [7-10]: evidence of degeneracy or death was awarded the maximum score of 4. For adults specifically, damage to the tegument (outer surface) was also awarded a score of 4 based on the indication that damage to the patrasite’s surface is lethal in vivo [11]. Assays were performed twice and representative data are shown.

[7] = Shake-flask octanol-water Log D7.4; assay type: physicochemical; settings: pH 7.4, octanol-water shake-flask
Procedure: Shake-flask octanol-water distribution coefficient at pH 7.4 (Log D7.4). The aqueous solution used is 10 mM sodium phosphate pH 7.4 buffer. The method has been validated for Log D7.4 ranging from -2 to 5.0.

[8] = Aqueous pH 7.4 solubility; assay type: physicochemical; settings: aqueous buffer, thermodynamic from solid; pH 7.4 phosphate buffer, 25 °C, 20-24 h; read-out: Aq. Solubility
Procedure: Compounds are dried down from 10 mM DMSO solutions using centrifugal evaporation technique. Phosphate buffer (0.1 M pH 7.4) added and StirStix inserted in the glass vials, shaking is then performed at a constant temperature of 25 °C for 20-24 h. This step is followed by double centrifugation with a tip wash in between, to ensure that no residues of the dried compound are interfering. The solutions are diluted before analysis and quantification using LC/MS/MS is performed.

[9] = Human liver microsomal CLint; assay type: in vitro ADME; settings: human, liver microsomes, read-out: HLM Clint
Procedure: In vitro intrinsic clearance determined from human liver microsomes using a standard approach. Following incubation and preparation, the samples are analyzed using LC/MS/MS.

| SMILES | MRC5 pTC50 [2] | EC50 [3] [µM] | T.b.b. pEC50 [3] | further results |
| --- | --- | --- | --- | --- |
| CC(C)=Cc1cccc2c1/C(=N/Nc1ccc(S(=O)(=O)N(C)C)cc1)C(=O)N2 [NEU-4405, (Z)-N,N-Dimethyl-4-(2-(4-(2-methylprop-1-en-1-yl)-2-oxoindolin-3-ylidene)hydrazinyl)benzenesulfonamide] | <4.3 | 5.01 |  | EC50 [1]: > 5.01 µM; EC50 [4]: > 20 µM |
| Cc1cc2c(c(C)c1O)/C(=N/Nc1ccc(S(N)(=O)=O)cc1)C(=O)N2 [NEU-5469] | <5.0^b |  | 8.2 |  |
| CCc1cccc2c1/C(=N/Nc1ccc(S(N)(=O)=O)cc1)C(=O)N2 [NEU-5489] | <5.0^b |  | 7.5 |  |
| Cc1ccc2c3c(ccc2n1)NC(=O)/C3=N\Nc1ccc(S(N)(=O)=O)cc1 [NEU-5456] | <5.0^b | 0.0398 |  |  |
| NS(=O)(=O)c1ccc(N/N=C2\C(=O)Nc3cccc(CC4CCC4)c32)cc1 [NEU-5492] | <5.0^b |  | 6.9 |  |
| O=C1Nc2ccccc2/C1=N/Nc1cc(Cl)cc(Cl)c1 [NEU-2117, (Z)-3-(2-(3,5-Dichlorophenyl)hydrazono)indolin-2-one] | <4.3 | > 39.8 |  | fraction unbound at 10 µM [5]: < 0.04; EC50 [1]: > 10 µM; Adult severity score (10 μM) ([6]; 3h): 1; Adult severity score (10 μM) ([6]; 6h): 0; Adult severity score (10 μM) ([6]; 24h): 0; Adult severity score (10 μM) ([6]; 48h): 3; Somule severity score (10 μM) ([6]; 24h): 0; Somule severity score (10 μM) ([6]; 48h): 0; logD [7]: > 3.7; EC50 [4]: > 10 µM; solubility [8]: < 3 µM |
| Cc1ccc2c(c1C)/C(=N/Nc1ccc(S(N)(=O)=O)cc1)C(=O)N2 [NEU-5479] | <5.0^b |  | 6.9 |  |
| Cc1cc2c(c(Cl)c1O)/C(=N/Nc1ccc(S(N)(=O)=O)cc1)C(=O)N2 [NEU-5485] | <5.0^b |  | 7.1 |  |
| NS(=O)(=O)c1ccc(NN=C2C(=O)Nc3cc4c(cc32)NCC4)cc1 [NEU-5459] | <5.0^b | 0.794 |  |  |
| CC(C)c1cc2c(c(Cl)c1O)/C(=N/Nc1ccc(S(N)(=O)=O)cc1)C(=O)N2 [NEU-5455] | <5.0^b |  | 6.4 |  |
| COc1ccc(N/N=C2\C(=O)Nc3ccccc32)cc1 [NEU-2114, (Z)-3-(2-(4-Methoxyphenyl)hydrazono)indolin-2-one] | <4.3 | 10 |  | fraction unbound at 10 µM [5]: < 0.03; EC50 [1]: > 10 µM; Adult severity score (10 μM) ([6]; 3h): 0; Adult severity score (10 μM) ([6]; 6h): 0; Adult severity score (10 μM) ([6]; 24h): 0; Adult severity score (10 μM) ([6]; 48h): 0; Somule severity score (10 μM) ([6]; 24h): 2; Somule severity score (10 μM) ([6]; 48h): 0; logD [7]: > 3.3; EC50 [4]: > 10 µM; solubility [8]: < 7 µM |
| CCc1ccc2c(c1)NC(=O)/C2=N\Nc1ccc(S(N)(=O)=O)cc1 [NEU-5470] | <5.0^b |  | 6.1 |  |
| NC(=O)c1cccc2c1/C(=N/Nc1ccc(S(N)(=O)=O)cc1)C(=O)N2 [NEU-5460] | <5.0^b |  | 6.2 |  |
| CC(C)c1cccc2c1/C(=N/Nc1ccc(S(N)(=O)=O)cc1)C(=O)N2 [NEU-5491] | <5.0^b |  | 7.6 |  |
| Cc1c(Cl)ccc2c1/C(=N/Nc1ccc(S(N)(=O)=O)cc1)C(=O)N2 [NEU-5464] | <5.0^b |  | 7.3 |  |
| NS(=O)(=O)c1ccc(N/N=C2\C(=O)Nc3ccc(Cl)cc32)cc1 [NEU-2319] | <5.0^b |  | 6.0 |  |
| NS(=O)(=O)c1ccc(N/N=C2\C(=O)Nc3ccccc32)cc1 [NEU-2115, (Z)-4-(2-(2-Oxoindolin-3-ylidene)hydrazinyl)benzenesulfonamide] | <4.3 | 1.26 |  | fraction unbound at 10 µM [5]: 0.04; EC50 [1]: > 10 µM; logD [7]: 2.3; EC50 [4]: > 10 µM; solubility [8]: < 8 µM; microsomal CLint [9]: 20.4 µL/min/mg |
| CC(C)Cc1cccc2c1/C(=N/Nc1ccc(S(N)(=O)=O)cc1)C(=O)N2 [NEU-5487] | <5.0^b |  | 7.4 |  |
| NS(=O)(=O)c1ccc(N/N=C2\C(=O)Nc3cccc(CCc4ccc(O)cc4)c32)cc1 [NEU-5493] |  |  | 6.0 |  |

From paper PMC6383948, “Evaluation of a class of isatinoids identified from a high-throughput screen of human kinase inhibitors as anti-Sleeping Sickness agents” (PLoS Neglected Tropical Diseases, 2019)
